Source: US9428514B2, “Bromodomain inhibitors” (AbbVie Inc., priority 2013, dated 2016)

Test system: breast cancer cell line MX-1
Experiment: MX-1 cell line proliferation assay (3-day, Cell Titer Glo)
Type: cell-based
Settings: Homo sapiens, MX1, MX-1 cells, 72 hours, read-out: Cellular proliferation: EC50
Method: The impact of compounds of the Examples on cancer cell proliferation was determined using the breast cancer cell line MX-1 (ATCC) in a 3-day proliferation assay. MX-1 cells were maintained in RPMI supplemented with 10% FBS at 37° C. and an atmosphere of 5% CO2. For compound testing, MX-1 cells were plated in 96-well black bottom plates at a density of 5000 cells/well in 90 μL of culture media and incubated at 37° overnight to allow cell adhesion and spreading. Compound dilution series were prepared in DMSO via a 3-fold serial dilution from 3 mM to […]. The DMSO dilution series were then diluted 1:100 in phosphate buffered saline, and 10 μL of the resulted solution were added to the appropriate wells of the MX-1 cell plate. The final compound concentrations in the wells were 3, 1, 0.3, 0.1, 0.03, 0.01, 0.003, 0.001, 0.0003, 0.0001, and 0.00003 μM.
Luminescence readings from the Cell Titer Glo assay were normalized to the DMSO treated cells and analyzed using the GraphPad Prism software with sigmoidal curve fitting to obtain EC50s. The minimum significant ratio (MSR) was determined to evaluate assay reproducibility (Eastwood et al., (2006) J Biomol Screen, 11: 253-261). The overall MSR was determined to be 2.1 and a moving MSR (last six run MSR overtime) has been <2. The EC50 values are reported in Table 1 for the indicated compounds.

Row | SMILES | EC50 [nM]
1 | CCOc1cc(=O)n(C)cc1-c1cc(N(Cc2cnn(C)c2)S(=O)(=O)CC)ccc1Oc1ccc(F)cc1F [Example 97, N-[4-(2,4-difluorophenoxy)-3-(4-ethoxy-1-methyl-6-oxo-1,6-dihydropyridin-3-yl)phenyl]-N-[(1-methyl-1H-pyrazol-4-yl)methyl]ethanesulfonamide] | 550
2 | CCOc1cc(=O)n(C)cc1-c1cc(N(Cc2cnn(C)c2)S(=O)(=O)Cc2ccccc2)ccc1Oc1ccc(F)cc1F [Example 98, N-[4-(2,4-difluorophenoxy)-3-(4-ethoxy-1-methyl-6-oxo-1,6-dihydropyridin-3-yl)phenyl]-N-[(1-methyl-1H-pyrazol-4-yl)methyl]-1-phenylmethanesulfonamide] | > 1000
3 | CCOc1cc(=O)n(C)cc1-c1cc(N(Cc2nccs2)S(=O)(=O)CC)ccc1Oc1ccc(F)cc1F [Example 99, N-[4-(2,4-difluorophenoxy)-3-(4-ethoxy-1-methyl-6-oxo-1,6-dihydropyridin-3-yl)phenyl]-N-(1,3-thiazol-2-ylmethyl)ethanesulfonamide] | 555
4 | CCOc1cc(=O)n(C)cc1-c1cc(N(Cc2cn(C)cn2)S(=O)(=O)CC)ccc1Oc1ccc(F)cc1F [Example 100, N-[4-(2,4-difluorophenoxy)-3-(4-ethoxy-1-methyl-6-oxo-1,6-dihydropyridin-3-yl)phenyl]-N-[(1-methyl-1H-imidazol-4-yl)methyl]ethanesulfonamide] | > 1000
5 | CCOc1cc(=O)n(C)cc1-c1cc(N(Cc2cn(C)cn2)S(=O)(=O)Cc2ccccc2)ccc1Oc1ccc(F)cc1F [Example 101, N-[4-(2,4-difluorophenoxy)-3-(4-ethoxy-1-methyl-6-oxo-1,6-dihydropyridin-3-yl)phenyl]-N-[(1-methyl-1H-imidazol-4-yl)methyl]-1-phenylmethanesulfonamide] | > 1000
6 | CCOc1cc(=O)n(C)cc1-c1cc(N(C[C@H]2COCCO2)S(=O)(=O)CC)ccc1Oc1ccc(F)cc1F [Example 102, N-[4-(2,4-difluorophenoxy)-3-(4-ethoxy-1-methyl-6-oxo-1,6-dihydropyridin-3-yl)phenyl]-N-[(2S)-1,4-dioxan-2-ylmethyl]ethanesulfonamide] | 710
7 | CCOc1cc(=O)n(C)cc1-c1cc(N(CC2CCOCC2)S(=O)(=O)CC)ccc1Oc1ccc(F)cc1F [Example 103, N-[4-(2,4-difluorophenoxy)-3-(4-ethoxy-1-methyl-6-oxo-1,6-dihydropyridin-3-yl)phenyl]-N-(tetrahydro-2H-pyran-4-ylmethyl)ethanesulfonamide] | 677
